Measurements as given in patent US12139481B2, “Compositions comprising macrocycle derivatives incorporating bridged macrocycles and methods of producing and using same” (Southwestern Oklahoma State University, priority 2015, dated 2024).

Tests used:
[1] = test system: S. mansoni newly transformed schistosomula (NTS); test: In vitro testing on Schistosoma mansoni newly transformed schistosomula (NTS), viability score; type: cell-based; conditions: NTS S. mansoni, 33 μM, 72 h
Method: Assays were prepared according to the laboratory SOP for the lab of Dr. Jennifer Keiser (Swiss Tropical and Public Health Institute, Basel). Harvested S. mansoni cercariae (Liberian strain) obtained from infected Biomphalaria glabrata snails were mechanically transformed into newly transformed schistosomula (NTS) following standard procedures. Briefly, snails were placed under light in the morning to stimulate cercarial shedding. The cercarial suspension was collected, cooled for 30 minutes, and then vigorously pipetted (30×) and vortexed (3 minutes). The suspension was then placed in the incubator (37° C. and 5% CO2) for 30 minutes, and the vortexing and pipetting steps were repeated. The transformation was complete at this point, and the tails were separated from the heads by rinsing three times with cold HBSS. NTS were then incubated overnight in culture medium overnight and used the next day.
The original stock compounds (which were not already dissolved) were dissolved in dimethyl sulfoxide (DMSO) to a concentration of 10 mM. 100 NTS were placed in each well of a 96-well plate with culture medium, and the test compound for a final well volume of 250 μl. […] NTS incubated with no more than 1% DMSO served as control. NTS were kept in an incubator at 37° C. and 5% CO2 for up to 72 hours. After 72 hours, the condition of the NTS was microscopically evaluated using a scale from 3 (normal activity and no tegument alteration) to 0 (dead, completely granulated).

[2] = test system: Cryptococcus neoformans ATCC 90113; test: Antimicrobial microdilution assay against Cryptococcus neoformans (modified CLSI/NCCLS, optical density); type: cell-based; conditions: for X more potent than Amphotericin B: C. neoformans, ratio of molar IC50 to Amphotericin B; for C. neoformans IC50 / IC50: in vitro, C. neoformans ATCC 90113; for IC50: read-out: C. neoformans IC50 (mol/L)
Summary of the method: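 Broth microdilution (modified CLSI) in RPMI pH 6.0, samples serially diluted in 20% DMSO/saline and tested in duplicate, growth followed by OD630 before and after incubation. MFC is the lowest concentration giving no growth when 5 μL from clear wells is plated on agar.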

[3] = test system: L. donovani promastigotes; test: Antileishmanial Alamar Blue assay on promastigotes; type: cell-based, Leishmania donovani; conditions: for X more potent than Pentamidine: L. donovani, ratio of molar IC50 to Pentamidine; for L. donovani IC50 / IC50: promastigotes, 48 hours, Alamar Blue; for IC50: read-out: L. donavani IC50
Summary of the method: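 L. donovani promastigotes in RPMI 1640 with 10% FCS, from 3-day culture, were set at 5×10^5/mL and exposed to compound (50-3.1 μg/mL) for 48 hours at 26° C. Growth read by Alamar Blue fluorescence (ex 544/em 590 nm); IC50 from percent growth versus concentration.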

[4] = test system: C. glabrata ATCC 90030; test: Antifungal broth dilution assay against C. glabrata (modified CLSI); type: cell-based, Candida glabrata; conditions: for C. glabrata IC50 / IC50: in vitro; for IC50: converted with molecular weight; for X more potent than Amphotericin B: molar IC50 ratio versus amphotericin B
Summary of the method: (§1)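 Modified CLSI broth microdilution with OD monitoring before and after incubation at 35 °C: Candida in RPMI 1640/MOPS pH 6.0, 1.5×10^3 CFU/ml, 46-50 h; Staphylococcus in cation-adjusted Mueller-Hinton pH 7.3, 5.0×10^5 CFU/ml, 16-20 h. IC50 from curve fit; MIC is the lowest concentration with no growth; MFC/MBC from subculture.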

[5] = test system: Staphylococcus aureus ATCC 29213; test: Antibacterial broth dilution assay against S. aureus (modified CLSI); type: cell-based; conditions: for S. aureus IC50 / IC50: in vitro; for IC50: converted with molecular weight; for X more potent than ciprofloxacen: molar IC50 ratio versus ciprofloxacen
Summary of the method: as §1

[6] = test system: methicillin-resistant S. aureus ATCC 33591 (MRS); test: Antibacterial broth dilution assay against MRSA (modified CLSI); type: cell-based, Staphylococcus aureus; conditions: for MRSa IC50 / IC50: in vitro; for IC50: converted with molecular weight; for X more potent than ciprofloxacen: molar IC50 ratio versus ciprofloxacen
Method: General Experimental Procedures. All organisms were obtained from the American Type Culture Collection (Manassas, VA) and include the fungi Candida albicans ATCC 90028, C. glabrata ATCC 90030, C. krusei ATCC 6258, and Cryptococcus neoformans ATCC 90113, and the bacteria Staphylococcus aureus ATCC 29213 and methicillin-resistant S. aureus ATCC 33591 (MRS). All organisms were tested using modified versions of the CLSI (formerly NCCLS) methods. For all organisms, optical density was used to monitor growth (NCCLS, Reference Method for Broth Dilution Antifungal Susceptibility Testing of Yeasts; Approved Standard M27-A2. National Committee on Clinical Laboratory Standards, 2002 22 (15); and NCCLS, Methods for Dilution Antimicrobial Susceptibility Tests for Bacteria that Grow Aerobically; Approved Standard, Seventh Edition M7-A7. National Committee on Clinical Laboratory Standards, 2006. 26(2)).
Samples (dissolved in DMSO) were serially-diluted in 20% DMSO/saline and transferred (10 μL) in duplicate to 96 well flat bottom microplates. Inocula were prepared by correcting the OD630 of microbe suspensions in incubation broth [RPMI 1640/0.2% dextrose/0.03% glutamine/MOPS @ pH 6.0 (Cellgro) for Candida spp., Sabouraud Dextrose for C. neoformans, and cation-adjusted Mueller-Hinton (Difco) @ pH 7.3 for Staphylococcus spp. to afford an assay volume of […] and final target inocula of: Candida spp. and C. neoformans: 1.5×10^3, and Staphylococcus spp.: 5.0×10^5 CFU/ml. Final sample test concentrations were 1/100th the DMSO stock concentration. […] All organisms were read at either 530 nm using the Biotek Powerwave XS plate reader (Bio-Tek Instruments, Vermont) prior to and after incubation: Candida spp. at 35° C. for 46-50 h, Staphylococcus spp. at 35° C. for 16-20 h, and C. neoformans at 35° C. for 70-74 h. IC50s (concentrations that afford 50% inhibition relative to controls) were calculated using XLfit 4.2 software (IDBS, Alameda, CA) using fit model 201. The MIC is defined as the lowest test concentration that allows no detectable growth. Minimum fungicidal or bactericidal concentrations were determined by removing 5 μl from each clear (or blue) well, transferring to fresh media, and incubating as previously mentioned. The MFC/MBC is defined as the lowest test concentration that kills the organism (allows no growth).
Primary Analysis. Samples were tested in duplicate at one test concentration (50 μg/mL), and percent inhibitions were calculated relative to blank and growth controls. Samples showing 50% inhibition in at least one test organism were selected for dose response (Secondary) studies.
Secondary Analysis. Extracts from the Primary Assay, and first-run pure compounds and column fractions were tested in duplicate at 3 test concentrations (5-fold dilutions). Samples dissolved to 20 mg/mL in DMSO were tested at 200, 40, and 8 μg/mL. Samples dissolved to 2 mg/mL in DMSO were tested at 20, 4, and 0.8 μg/mL.

CC(=O)[O-].CC(=O)[O-].F[P-](F)(F)(F)(F)F.F[P-](F)(F)(F)(F)F.[Cu+2].[Cu+2].c1cc(CN2CCNCCN3CCN(CC3)CC2)ccc1CN1CCNCCN2CCN(CC2)CC1 [OB28, [Cu2(p-SB-Cyclens)(OAc)2][PF6]2]
Effect at 72 h (%) [1]: 0.00%
X more potent than Amphotericin B [2]: 0.05
C. neoformans IC50 [2]: 5.210 µg/mL
IC50 [2]: 5.04 µM

CC(=O)[O-].CN1CCCN2CCN(CCCN(Cc3ccccc3)CC2)CC1.F[P-](F)(F)(F)(F)F.[Co+2] [TRH016]
Effect at 72 h (%) [1]: 11.71%

[Cu2(m-SB-Cyclams)(OAc)2][PF6]2 [KS24]
Effect at 72 h (%) [1]: 18.02%
X more potent than Amphotericin B [2]: 0.08
C. neoformans IC50 [2]: 3.180 µg/mL
IC50 [2]: 3.08 µM

[Co2(p-CB-cyclam-cyclen)(OAc)2][PF6]2 [CMB027]
X more potent than Pentamidine [3]: 0.18
L. donovani IC50 [3]: 32.62 µg/mL
IC50 [3]: 30.2 µM
C. glabrata IC50 [4]: 1.320 µg/mL
IC50 [4]: 1.22 µM
X more potent than Amphotericin B [4]: 1.16
S. aureus IC50 [5]: 7.36 µg/mL
IC50 [5]: 6.81 µM
X more potent than ciprofloxacen [5]: 0.04
MRSa IC50 [6]: 5.390 µg/mL
IC50 [6]: 4.99 µM
X more potent than ciprofloxacen [6]: 0.04
X more potent than Amphotericin B [2]: 0.32
C. neoformans IC50 [2]: ≤ 0.800 µg/mL
IC50 [2]: 0.74 µM

c1c(CN2CCCN3CCN(CCCNCC2)CC3)cc(CN2CCCN3CCN(CCCNCC2)CC3)cc1CN1CCCN2CCN(CCCNCC1)CC2 [CDG019]
Effect at 72 h (%) [1]: 0.00%

[Zn2(p-CB-cyclam-cyclen)(OAc)][PF6]3•4H2O [CMB030]
X more potent than Pentamidine [3]: 0.21
L. donovani IC50 [3]: 31.32 µg/mL
IC50 [3]: 25 µM
C. glabrata IC50 [4]: 4.190 µg/mL
IC50 [4]: 3.35 µM
X more potent than Amphotericin B [4]: 0.42
S. aureus IC50 [5]: 7.86 µg/mL
IC50 [5]: 6.28 µM
X more potent than ciprofloxacen [5]: 0.04
MRSa IC50 [6]: 8.760 µg/mL
IC50 [6]: 7 µM
X more potent than ciprofloxacen [6]: 0.03
X more potent than Amphotericin B [2]: 0.22
C. neoformans IC50 [2]: 1.380 µg/mL
IC50 [2]: 1.1 µM

c1c(CN2CCNCCN3CCN(CC3)CC2)cc(CN2CCNCCN3CCN(CC3)CC2)cc1CN1CCNCCN2CCN(CC2)CC1 [CDG029]
Effect at 72 h (%) [1]: 24.32%

CC(=O)[O-].CC(=O)[O-].CC(=O)[O-].CN1CCCN2CCN(CCCN(Cc3cc(CN4CCCN5CCN(C)CCCN(CC5)CC4)cc(CN4CCCN5CCN(C)CCCN(CC5)CC4)c3)CC2)CC1.F[P-](F)(F)(F)(F)F.F[P-](F)(F)(F)(F)F.F[P-](F)(F)(F)(F)F.[Cu+2].[Cu+2].[Cu+2] [BNS025]
Effect at 72 h (%) [1]: 18.02%
